From patent publication US20100303793A1, “COMBINATION THERAPY FOR CARDIAC REVASCULARIZATION AND CARDIAC REPAIR” (The Board of Regents, The University of Texas Syst, priority 2007, published 2010)
Blank lines part the entries; values can stand above or below the molecule they belong to.

Legend:
[1] = tested on: Human coronary artery endothelial (HCAE) cells; assay: Migration of HCAE cells through fibronectin-coated insert toward bFGF; format: cell-based; conditions: bFGF 10 ng/ml, 22 h
Experimental: (§1) The design of experiments to measure invasion and migration of endothelial cells toward the angiogenic factor bFGF (basic fibroblast growth factor) is shown in FIGS. 5A and 6A, respectively. The standard assay used 5×10^4 cells added to the top of the insert in 250 μl of medium. The lower portion of the apparatus contained 750 μl of medium, plus or minus bFGF. […] Transmembrane cell invasion and migration assays were performed using BD FluoroBlok (BD Bioscience, Bedford, Mass.) inserts coated with BD Matrigel Matrix (a biologically active basement membrane preparation) or with fibronectin, respectively. […] (R&D System, Minneapolis, Minn.) (FGF) or medium alone (CTR) were added to the lower chamber of the insert plate as a chemoattractant. The cells were allowed to invade or migrate for 22 hours. Cells were labeled post invasion or post migration with Calcein AM (4 μg/ml) and the fluorescence of the cells that invaded through the BD Matrigel Matrix or migrated to the underside of the insert membrane was measured using a plate reader at 485 nm (excitation) and 530 nm (emission).

[2] = tested on: Human coronary artery endothelial (HCAE) cells; assay: Invasion of HCAE cells through Matrigel toward bFGF; format: cell-based; conditions: bFGF 10 ng/ml, 22 h
Experimental: as §1

23C53 = assay: Binding of biotin-conjugated thrombin to complementary peptide 23C53
23C53, sequence (as listed by the source): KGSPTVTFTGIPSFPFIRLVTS

AC-23 = assay: Binding of biotin-conjugated thrombin to complementary peptide AC-23
AC-23, sequence (as listed by the source): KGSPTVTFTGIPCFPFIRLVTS

[3] = tested on: Human coronary artery endothelial (HCAE) cells; assay: Migration of HCAE cells through fibronectin-coated insert toward PDGF; format: cell-based; conditions: PDGF 10 ng/ml, 22 h
Experimental: (§2) The design of experiments to measure invasion and migration of endothelial cells toward the angiogenic factor PDGF (platelet-derived growth factor-BB) is shown in FIGS. 7A and 8A respectively. The standard assay used 5×10^4 cells added to the top of the insert in […] of medium. The lower portion of the apparatus contained 750 μl of medium, plus or minus PDGF. […] Transmembrane cell invasion and migration assays were performed using BD FluoroBlok inserts coated with BD Matrigel Matrix (a biologically active basement membrane preparation) or with fibronectin (BD Bioscience, Bedford, Mass.), respectively. […] PDGF [10 ng/ml] (R&D System, Minneapolis, Minn. (PDGF) or medium alone (CTR) were added to the lower chamber of the insert plate as a chemoattractant. The cells were allowed to invade or migrate for 22 hours. Cells were labeled post invasion or post migration with Calcein AM (4 μg/ml) and the fluorescence of the cells that invaded through the BD Matrigel Matrix or migrated to the underside of the insert membrane was measured using a plate reader at 485 nm (excitation) and 530 nm (emission).

[4] = tested on: Human coronary artery endothelial (HCAE) cells; assay: Invasion of HCAE cells through Matrigel toward PDGF; format: cell-based; conditions: PDGF 10 ng/ml, 22 h
Experimental: as §2

Molecule: bFGF: basic fibroblast growth factor, angiogenic factor (R&D System)
Increase of endothelial cell migration by bFGF compared to control medium not containing bFGF [1]: ~40% | bFGF-induced endothelial cell invasion, % of invasion with control medium (CTR) [2]: ~170%

Specific binding of biotin-conjugated thrombin to 23C53 (23C53): bind specifically | Specific binding of biotin-conjugated thrombin to AC23 (AC-23): bind specifically
Molecule: thrombin

B1: PDGF: platelet-derived growth factor-BB, angiogenic factor (R&D System) (protein, UniProt P01127 82-190, looked up)
Platelet-derived growth …: SLGSLTIAEPAMIAECKTRTEVFEISRRLIDRTNANFLVWPPCVEVQRCSGCCNNRNVQCRPTQVQLRPVQVRKIEIVRKKPIFKKATVTLEDHLACKCETVAAARPVT
Effect of PDGF on endothelial cell migration compared to control (CTR) [3]: no effect | Effect of PDGF on endothelial cell invasion compared to control medium without PDGF [4]: no effect
